Calls of active or inactive are those of the source.

In one series the test system is H9c2. The experiment in a line: cells. The series is classed as functional, cell-based. As to conditions: Rattus norvegicus, H9c2, Myocardium.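 Further: confirmatory concentration-response retest of ultra-high-throughput screening hits for modulation of myocardial damage; cell death induced by hydrogen peroxide oxidative stress; compound pretreatment for 60 min then peroxide exposure for 2 h; potency is for protecting the cells against peroxide damage rather than for killing them.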
Series [1] addresses T1, Carboxy-terminal domain RNA polymerase II polypeptide A small phosphatase 1 (Homo sapiens, UniProt Q9GZU7).
T1 sequence (Q9GZU7 whole entry): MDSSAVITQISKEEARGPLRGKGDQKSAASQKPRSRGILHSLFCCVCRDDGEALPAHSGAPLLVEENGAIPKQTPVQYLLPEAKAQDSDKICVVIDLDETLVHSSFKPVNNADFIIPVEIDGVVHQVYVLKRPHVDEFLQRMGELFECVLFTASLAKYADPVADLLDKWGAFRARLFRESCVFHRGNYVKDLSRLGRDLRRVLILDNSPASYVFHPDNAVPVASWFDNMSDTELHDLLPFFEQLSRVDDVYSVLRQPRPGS
The experiment in a line: inhibitors of CTDSP1, concentration-response testing, biochemical assay, absorbance-based, actives from ultra-high-throughput screening (AID 540297). Format: functional.

For another series, the target named is Cytochrome P450 2C9 (Homo sapiens, UniProt P11712).
Series [2] addresses Luciferin 4-monooxygenase (Photinus pyralis, UniProt P08659). In words: firefly luciferase enzyme inhibitors, dose response, biochemical, luminescence (AID 1891).
Series [3] can be described thus: Luminescence Cell-Based Dose Confirmation HTS to Identify Inhibitors of Platelet Dense Granule Release. [Related pubchem assays: 1663 (Primary HTS), 1678 (Summary of Project)]. The series is classed as functional.
The next series deals with T2, Cytochrome P450 1A2 (Homo sapiens, UniProt P05177).
T2 sequence (P05177 whole entry): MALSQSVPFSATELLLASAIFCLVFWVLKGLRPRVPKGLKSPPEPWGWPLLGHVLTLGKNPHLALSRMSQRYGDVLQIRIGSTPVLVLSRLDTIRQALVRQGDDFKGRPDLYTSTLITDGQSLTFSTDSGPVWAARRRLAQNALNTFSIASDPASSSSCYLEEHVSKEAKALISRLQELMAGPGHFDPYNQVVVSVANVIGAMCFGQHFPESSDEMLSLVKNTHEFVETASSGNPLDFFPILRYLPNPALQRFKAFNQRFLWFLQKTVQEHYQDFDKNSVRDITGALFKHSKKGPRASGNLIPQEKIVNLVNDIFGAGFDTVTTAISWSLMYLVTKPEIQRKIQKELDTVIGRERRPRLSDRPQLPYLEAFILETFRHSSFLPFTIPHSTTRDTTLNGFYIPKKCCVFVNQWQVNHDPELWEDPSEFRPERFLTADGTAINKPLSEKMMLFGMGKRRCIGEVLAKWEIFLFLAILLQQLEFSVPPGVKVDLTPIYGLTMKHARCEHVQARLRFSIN

A further series deals with Cytochrome P450 2C19 (Homo sapiens, UniProt P33261). In words: Cytochrome panel assay with activity outcomes. Panel member name: p450-cyp2c19 Compounds with AC50 equal or less than 10 uM are considered active. Format: functional. As to conditions: read-out: AC50.
A short description of the next series: cells. Format: functional.
Series [4] in a line: THP-1 cell cytotoxicity, dose response, cytotoxicity control for non-replicating M. tuberculosis project (AID 489025). Format: functional.
The subject of series [5] is Streptococcus sp. 'group A'. In words: growth inhibition of control SK(-) GAS strain, dose response, counter-screen for streptokinase expression inhibitor project, luminescence, kanamycin, BacTiterGlo, confirmation (AID 1900). The series is classed as functional, organism-based. For orientation: Counterscreens check selectivity or assay interference.
Another series has as its system Streptococcus. The experiment in a line: Group A Streptococcus viability loss, dose response, counter-screen for streptokinase expression inhibitor project, luminescence, BacTiterGlo (AID 1915).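 Further: potency for reduction of bacterial viability or growth.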 Format: functional, organism-based.
The next series deals with T3, Streptokinase A (Streptococcus pyogenes serotype M1, UniProt P10520).
T3 sequence (P10520 whole entry): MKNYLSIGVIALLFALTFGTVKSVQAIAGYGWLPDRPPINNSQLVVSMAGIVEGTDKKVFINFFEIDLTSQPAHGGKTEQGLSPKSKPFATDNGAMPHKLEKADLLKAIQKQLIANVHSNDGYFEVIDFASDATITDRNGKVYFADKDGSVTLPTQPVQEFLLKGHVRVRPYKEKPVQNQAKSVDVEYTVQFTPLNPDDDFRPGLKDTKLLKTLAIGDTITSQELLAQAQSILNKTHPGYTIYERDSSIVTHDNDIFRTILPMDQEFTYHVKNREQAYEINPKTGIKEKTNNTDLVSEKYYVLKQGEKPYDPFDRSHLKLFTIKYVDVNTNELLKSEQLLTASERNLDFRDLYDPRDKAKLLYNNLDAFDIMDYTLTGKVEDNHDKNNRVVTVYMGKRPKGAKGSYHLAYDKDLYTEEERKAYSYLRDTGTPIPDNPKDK
In words: S. pyogenes streptokinase expression inhibitors, potency, dose response, plasminogen activation absorbance, OD405 (AID 1914).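 Further: secreted streptokinase activity via plasminogen activation per viability signal from cell pellet.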 Format: functional, Streptococcus pyogenes M1 GAS.

The target in another series is Cytochrome P450 3A4 (Homo sapiens, UniProt P08684).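 Further: CYP3A4 tested as one member of a cytochrome P450 panel screen.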
In a further series the target is Cytochrome P450 2D6 (Homo sapiens, UniProt P10635).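 Further: CYP2D6 member of a cytochrome P450 panel assay.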
Sequence of Cytochrome P450 2D6 (P10635 whole entry): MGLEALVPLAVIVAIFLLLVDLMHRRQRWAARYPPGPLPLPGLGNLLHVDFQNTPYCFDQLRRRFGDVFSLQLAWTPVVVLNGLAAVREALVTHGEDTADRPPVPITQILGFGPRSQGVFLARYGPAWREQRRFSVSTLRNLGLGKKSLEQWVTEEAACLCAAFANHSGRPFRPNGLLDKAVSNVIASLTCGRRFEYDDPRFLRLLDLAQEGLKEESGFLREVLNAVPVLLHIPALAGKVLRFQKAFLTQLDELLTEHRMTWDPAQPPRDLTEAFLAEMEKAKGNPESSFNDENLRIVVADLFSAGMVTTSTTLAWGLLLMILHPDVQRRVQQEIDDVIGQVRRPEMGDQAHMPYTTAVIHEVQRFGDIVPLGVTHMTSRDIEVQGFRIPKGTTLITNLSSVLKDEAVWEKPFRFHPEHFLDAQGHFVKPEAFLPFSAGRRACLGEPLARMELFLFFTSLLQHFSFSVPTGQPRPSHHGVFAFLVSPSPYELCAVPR

Sequence of Luciferin 4-monooxygenase (P08659 whole entry): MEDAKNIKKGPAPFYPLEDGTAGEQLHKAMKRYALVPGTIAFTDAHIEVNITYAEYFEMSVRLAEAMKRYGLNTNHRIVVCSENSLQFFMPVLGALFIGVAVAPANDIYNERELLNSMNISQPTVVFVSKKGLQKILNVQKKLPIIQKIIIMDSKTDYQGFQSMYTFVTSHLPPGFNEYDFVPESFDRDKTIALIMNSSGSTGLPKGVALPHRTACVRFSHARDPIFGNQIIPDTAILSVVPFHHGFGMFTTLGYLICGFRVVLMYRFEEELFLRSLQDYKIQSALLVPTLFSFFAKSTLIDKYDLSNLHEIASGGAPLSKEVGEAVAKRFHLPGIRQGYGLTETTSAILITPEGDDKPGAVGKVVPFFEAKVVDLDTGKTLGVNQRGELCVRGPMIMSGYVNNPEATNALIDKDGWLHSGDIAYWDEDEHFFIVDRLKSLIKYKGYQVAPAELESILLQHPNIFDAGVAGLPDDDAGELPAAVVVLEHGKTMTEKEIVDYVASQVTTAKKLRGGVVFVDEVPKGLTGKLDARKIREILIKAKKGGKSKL
Sequence of Cytochrome P450 2C9 (P11712 whole entry): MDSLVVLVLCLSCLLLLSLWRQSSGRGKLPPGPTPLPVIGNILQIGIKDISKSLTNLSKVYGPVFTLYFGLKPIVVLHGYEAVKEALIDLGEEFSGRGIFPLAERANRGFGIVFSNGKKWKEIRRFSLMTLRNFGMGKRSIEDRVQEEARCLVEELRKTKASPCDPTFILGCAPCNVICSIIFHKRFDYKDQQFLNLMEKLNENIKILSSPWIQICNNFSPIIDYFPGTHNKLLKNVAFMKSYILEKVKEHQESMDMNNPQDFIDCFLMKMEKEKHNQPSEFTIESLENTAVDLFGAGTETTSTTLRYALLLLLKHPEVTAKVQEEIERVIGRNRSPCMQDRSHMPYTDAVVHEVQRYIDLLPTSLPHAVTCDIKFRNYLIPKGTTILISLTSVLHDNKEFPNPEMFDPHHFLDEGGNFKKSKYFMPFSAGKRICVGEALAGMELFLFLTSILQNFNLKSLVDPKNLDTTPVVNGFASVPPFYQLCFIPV
Sequence of Cytochrome P450 3A4 (P08684 whole entry): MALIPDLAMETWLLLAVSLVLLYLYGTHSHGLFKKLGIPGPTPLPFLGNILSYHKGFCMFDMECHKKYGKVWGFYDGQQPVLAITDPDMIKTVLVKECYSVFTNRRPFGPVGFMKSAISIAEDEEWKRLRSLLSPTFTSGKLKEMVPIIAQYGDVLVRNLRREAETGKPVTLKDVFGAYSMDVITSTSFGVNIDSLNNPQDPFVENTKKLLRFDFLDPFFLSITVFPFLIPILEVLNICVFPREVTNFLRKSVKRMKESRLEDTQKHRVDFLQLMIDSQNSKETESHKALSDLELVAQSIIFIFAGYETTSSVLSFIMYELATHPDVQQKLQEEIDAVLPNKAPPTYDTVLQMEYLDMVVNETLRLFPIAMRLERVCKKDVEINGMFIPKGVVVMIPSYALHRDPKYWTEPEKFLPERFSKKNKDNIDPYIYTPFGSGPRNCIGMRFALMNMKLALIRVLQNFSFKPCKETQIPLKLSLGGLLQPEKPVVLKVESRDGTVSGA
Sequence of Cytochrome P450 2C19 (P33261 whole entry): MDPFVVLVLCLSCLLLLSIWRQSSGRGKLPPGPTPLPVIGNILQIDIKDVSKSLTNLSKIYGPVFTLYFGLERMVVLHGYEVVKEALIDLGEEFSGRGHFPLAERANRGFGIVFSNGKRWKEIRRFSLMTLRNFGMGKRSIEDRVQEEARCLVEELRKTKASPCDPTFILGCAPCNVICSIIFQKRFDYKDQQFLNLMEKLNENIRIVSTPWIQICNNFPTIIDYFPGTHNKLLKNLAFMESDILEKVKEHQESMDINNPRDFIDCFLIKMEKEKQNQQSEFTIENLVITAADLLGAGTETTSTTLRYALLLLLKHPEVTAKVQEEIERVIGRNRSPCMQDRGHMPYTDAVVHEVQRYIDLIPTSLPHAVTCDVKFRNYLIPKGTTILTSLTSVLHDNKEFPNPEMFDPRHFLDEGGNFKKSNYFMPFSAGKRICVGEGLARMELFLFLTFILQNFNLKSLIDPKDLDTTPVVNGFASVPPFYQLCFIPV

Regarding `N#Cc1ccc(OCC(=O)Nc2nc(-c3ccccn3)cs2)cc1`, the IC50 with H9c2 is > 79 µM (inactive). As to `O=C(COC(=O)c1ccc(Cl)c(S(=O)(=O)N2CCCCC2)c1)NCc1ccco1`, in series [1], the IC50 was 13.8 µM (active).

Regarding `Cc1ccc(NC(=O)c2cccc(N(C)C)c2)cc1NC(=O)c1ccc(O)cc1`, on Cytochrome P450 2C9, the AC50 result is recorded as “inconclusive”. For `COc1ccccc1OP(=O)(Nc1cccnc1)Oc1ccccc1OC`, the IC50 in the series on H9c2 was > 79 µM (inactive). On to `Cc1cc2ccccn2c1C(=O)c1ccc(N/N=C/c2ccc(C(=O)O)cc2)c([N+](=O)[O-])c1`, for which the IC50 in series [1] was 1.02 µM (active). As to `CCCn1c(C2CC(=O)N(c3cc(OC)ccc3OC)C2)nc2ccccc21` (configuration not stated), the EC50 in series [2] and in series [3] was > 112 µM (not active) throughout. `O=C(CNC(=O)c1cccs1)NCC(=O)OCc1ccc(Cl)cc1Cl`: the AC50 on Cytochrome P450 1A2 was 10 µM (inconclusive); on Cytochrome P450 2C9 it was “inconclusive”.

Regarding `COC(=O)c1cc(Cl)c(NC(=O)/C=C/c2ccc(OC)c(OC)c2)cc1OC`, the IC50 in the series with H9c2 is 22.1 µM (active). `CN1CCCN(S(=O)(=O)c2ccc3c(c2)OCCO3)CC1`: the results for the AC50 result at Cytochrome P450 2C9 and on Cytochrome P450 2C19 were “inconclusive” and 25.1 µM (inconclusive), respectively. For the compound `Cc1ccc(C(=O)O)cc1-c1ccc(C=C2C(=O)c3ccccc3C2=O)o1`, in [1], the IC50 is 13.7 µM (active). For the compound `CC1(C(=O)Nc2cccc(OC(F)(F)F)c2)Cc2c(-c3ccc(C(N)=O)cc3)ccnc2O1` (configuration not stated), the IC50 in the series with H9c2 was > 79 µM (inactive). Still for that read-out and setting: with `Cc1nn(-c2ccccc2)c(Cl)c1C(=O)NNC(=O)c1ccccc1O` the figure was 13 µM (active). On to `C/C(=N\NC(=O)COc1ccc(C)cc1Br)c1cc([N+](=O)[O-])cs1`, for which the IC50 in “cells” is 34.1 µM (active). In addition, in [4], the CC50 is > 40 µM (active). Consider `Cc1ccc(S(=O)(=O)N2CCN(C(=O)COC(=O)CCOc3ccccc3C)CC2)c(C)c1`, for which, in series [1], the IC50 was 10.7 µM (active). As to `CCc1cccc2c(C=C(C#N)C#N)cn(CC(=O)N3CCCC3)c12`, the AC50 entry at Cytochrome P450 2C9 is reported as “inconclusive”.

`CC(C)C1OC(NC(=O)Nc2ccc(Cl)c(Cl)c2)=NC1=O` (configuration not stated): the EC50 in [5] was 2.51 µM (active); with Streptococcus it was 28.7 µM (active); on Streptokinase A it was > 150 µM (not active). Also, in “cells”, the IC50 was 18.9 µM (active). Moreover, in series [4], the CC50 is > 40 µM (active). Turning to `Cc1cc(CNC(=O)COC(=O)Cn2[nH]c(=O)c3ccccc3c2=O)cc(C)c1O`, the IC50 in the series on H9c2 is > 79 µM (inactive).

Consider `Cc1cccc(CNc2ccnc(-c3ccccc3CN(C)C)n2)c1`, for which the AC50 at Cytochrome P450 3A4 is 3.98 µM (inconclusive); at Cytochrome P450 2C9, “inconclusive”. As for `CCn1c(CNC(=O)COc2ccc(C(C)C)cc2)nnc1SCC(=O)Nc1cc(F)ccc1C`, in [1], the IC50 was 16.7 µM (active). The AC50 on Cytochrome P450 2D6 is 22.4 µM (inconclusive). For `O=C(Nc1cc(=O)c2ccccc2o1)N1CCCCC1`, in the series on H9c2, the IC50 is 22.8 µM (active). On to `CCCCNC(=O)Cc1ccc(C)cc1`, for which, in series [4], the CC50 was > 40 µM (active). Turning to `CC(=O)c1ccc(-c2cnc3c(NC=O)cc(-c4cccc(NS(C)(=O)=O)c4)cn23)cc1`, the IC50 with H9c2 was > 79 µM (inactive). With `O=C(Nc1ccccc1Cl)c1ccccc1Cl`, the concentration at half-maximal activity (AC50) result at Cytochrome P450 2C9 is on record as “inconclusive”.

For `Cc1cc(C)n(C(=O)c2cc3ccccc3c(=O)o2)n1`, the AC50 entry at Cytochrome P450 2C9 is given as “inconclusive”. With `CCCCNC(=O)Nc1ccc(Br)cn1`, the EC50 in series [2] and in series [3] was > 112 µM (not active) throughout.

As for `COc1ccc(OC)c([N+](=O)[O-])c1C(N)=O`, the IC50 in series [1] was 3.49 µM (active). With `COCC(C)n1c(C)cc(C(=O)COC(=O)c2c(NC(C)=O)sc(C)c2C)c1C` (configuration not stated), the IC50 in series [1] is 9.88 µM (active). The same measure, in the same setting: as for `Cc1ccc(NC(=O)CN(C)C(=O)c2cc(-c3ccco3)nc3ccccc23)cc1`, the figure is 3.88 µM (active); as for `CC(=O)Nc1ccc(N/C=C2\C(=O)NC(=O)N(Cc3ccco3)C2=O)cc1`, 9.73 µM (active). As for `COn1c(=O)c(=O)n(O)c2ccccc21`, the EC50 in series [2] and in series [3] was > 112 µM (not active) throughout.

The IC50 is the midpoint of a concentration-inhibition curve. Broadly, the AC50 is the concentration giving half of the maximal activity seen. In general, EC50 refers to the midpoint of the concentration-response curve. Broadly, the CC50 is the concentration at which the toxic effect on the cells reaches its halfway point.

(Values after ChEMBL document CHEMBL1201862, “PubChem BioAssay data set” (2004).)
